# What was measured:
# [1] = tested on: strawberry plant (variety: “smile ruby”); assay: Growth of strawberry seedlings in tissue culture medium with sugar; format: in vivo; settings: for Underground part weight / Number of lateral buds / Aerial part weight / Root length: 0.1% (w/v) in medium; for Underground part weight: without addition 0.5; for Number of lateral buds: without addition 0.6; for Aerial part weight: without addition 1.8; for Root length: without addition 8.7; for Plant length: 0.1% (w/v) in ½ strength MS medium, without addition 3.0
# Description: Seedlings of a strawberry plant (variety: “smile ruby”) obtained by meristem culture under sterile conditions were used in an experiment.
# As for the strawberry, by using ½ strength MS medium supplemented with 0.1% (w/v) D-psicose or D-glucose, the seedling plants were aseptically transplanted on Oct. 14, 2003, and then, cultivation was carried out in a culture chamber at 25° C. and 5,000 Lux (12-hour day length). Then, on Jan. 20, 2004, a survey was carried out with regard to the growth conditions of aerial part and underground part, the number of lateral buds and the like.
# Bletilla striata = assay: Growth and bulb formation of Bletilla striata seedlings in tissue culture; format: in vivo
# Description: Seedling plants of Bletilla striata obtained by sterile sowing were used in an experiment.
# As for the Bletilla striata, by using ½ strength MS medium supplemented with D-psicose, D-allose, D-glucose or D-frucose at a concentration of from 0.005% to 0.05% (w/v), the seedling plants were aseptically transplanted on Feb. 27, 2003, and then, cultivation was carried out under the same conditions as those of the strawberry in Example 3. Then, on Jun. 30, 2003, a survey was carried out with regard to the growth conditions of aerial part and underground part, the number of buds, the ratio of bulb formation, the bulb size and the like.
# Primula = assay: Drying stress of Primula after foliar spraying; format: in vivo; settings: foliar spraying of 0.2% (w/v) solution
# Description: By using Primula, an effect of spraying D-psicose on a drying stress was examined. By using commercially available Primula planted in a pot, foliar spraying of water, a 0.2% (w/v) D-glucose solution or a 0.2% (w/v) D-psicose solution was carried out on the whole plant. After irrigation was sufficiently carried out from the lower part of the pot, the plant was left in a condition that no irrigation was carried out, and a wilted condition thereof was observed.
# [2] = tested on: seeds of vegetables, ornamental plants, herbs, fruit trees, grains and feed crops; assay: Seed germination, continuous treatment (Experiment 1); format: in vivo
# Source text: Seeds of vegetables (11 families and 51 species or varieties); ornamental plants (19 families and 47 species or varieties); […] (4 families and 14 species or varieties); fruit trees (3 families and 3 species or varieties); grains (1 family and 3 species or varieties); and feed crops (1 family and 3 species or varieties) were continuously treated with any of 4 types of solutions of deionized water (control), 1% D-fructose, 1% D-psicose and 0.5% D-fructose+0.5% D-psicose and germinated under the condition of 25° C., 35 μmol·m^−2·s^−1, and 16-hour lighting or 16-hour dark. As for the number of seeds, 50 seeds were used for each solution basically, and when the number of seeds was small, the seeds were distributed in such a manner that the number of seeds for each solution became equal. The seeds were sown in a dish with a diameter of 9 cm having a filter paper placed therein or when the seeds were large, they were sown in a styrol container with a diameter of 10 cm and a height of 45 mm. Then, 10 ml or 50 ml of any of the solutions was poured therein, and deionized water was suitably added depending on the transpiration.
# Salsola komarovii = assay: Seed germination, short-time and continuous treatment (Experiment 2); format: in vivo
# Description: In order to clarify an effect of a short-time treatment, 50 seeds of Salsola komarovii, tomato (Home Momotaro) and sunny lettuce (Red Wave), and 20 seeds of morning glory (Tairin Zaki Kongo) were immersed in any of deionized water, 1% D-psicose, 1% D-allose and 1% L-galactose for 24 hours (25° C., dark), respectively, then, they were lightly washed with deionized water. Then, the seeds were sown in a dish with a diameter of 9 cm having a filter paper placed therein, and germinated under the same condition by poring 5 to 10 ml of deionized water therein. Further, for the comparison, a continuous treatment with 1% D-psicose was carried out in accordance with the same procedure.
# [3] = tested on: Fusarium oxysporum, Glomerella cingulata, Verticillium dahliae and Botrytlis cinerea; assay: Mycelial elongation of plant pathogenic bacteria on agar with rare sugar; format: cell-based; settings: 0.05% (w/v) in agar medium, 23° C., 7 days
# Description: By using as targets, Fusarium oxysporum, Glomerella cingulata, Verticillium dahliae and Botrytlis cinerea, which are typical plant pathogenic bacteria, an effect of a rare sugar on mycelial elongation was examined.
# As the test bacterial strains, IFO 31213 strain, IFO 6425 strain, IFO 9765 strain and IFO 9760 strain were used.
# After the cultivation, the length of the extending mycelium was measured.
# [4] = tested on: Aspergillus niger, Cladosporium cladosporioides and Penicillium chrysogenum; assay: Mycelial elongation of filamentous fungi on agar with rare sugar; format: cell-based; settings: 0.05% (w/v) in agar medium, 25° C., 4 days
# Description: By using as targets, Aspergillus niger, Cladosporium cladosporioides and Penicillium chrysogenum, which are typical filamentous fungi and generally seen in a living environment, an effect of a rare sugar on mycelial elongation was examined.
# As the test fungal strains, NBRC 4066 strain, NBRC 4459 strain and NBRC 4626 strain were used.
# Each test fungal strain was cultured on a potato dextrose agar medium at 25° C. for 7 days, and one in which the mycelium extended over the surface of the dish was pushed out along with the agar medium in such a manner that the agar medium was in a disc form with a diameter of 1.1 cm, which was placed at the center of a dish filled with an agar medium (1% Bacto agar) supplemented with any of a variety of rare sugars (allitol, D-altrose, L-mannose, L-galactose, D-tagatose, D-sorbose, D-psicose, D-allose, D-glucose and D-fructose) at 0.05% (w/v) and cultured at 25° C. for 4 days. After the cultivation, the length of the mycelium extending on the surface of the culture medium was measured. Two culture media were prepared for each test plot, and the mycelial length represents the average thereof.
# [5] = tested on: strawberry plant (variety: “smile ruby”); assay: Growth of strawberry seedlings in tissue culture medium with sugar; format: in vivo; settings: increased (high) concentration in medium
smiles,measurement,setting,value
"O=C[C@H](O)[C@@H](O)[C@H](O)[C@H](O)CO [D-glucose, reference compound]",Underground part weight,[1],1.2 g
same,Number of lateral buds,[1],1.0
same,Aerial part weight,[1],3.0 g
same,Root length,[1],8.7 cm
same,Plant length,[1],4.3 cm
same,Aerial part weight,Bletilla striata; sugar 0.005% in medium,0.15 g
same,Bulb size,Bletilla striata; sugar 0.005% in medium,5.1 mm
same,Maximum plant length,Bletilla striata; sugar 0.005% in medium,7.3 cm
same,Maximum root length,Bletilla striata; sugar 0.005% in medium,4.9 cm
same,Number of buds,Bletilla striata; sugar 0.005% in medium,3.7
same,Number of leaves,Bletilla striata; sugar 0.005% in medium,4.1
same,Ratio of bulb formation,Bletilla striata; sugar 0.005% in medium,37%
same,Underground part weight,Bletilla striata; sugar 0.005% in medium,0.13 g
same,Aerial part weight,Bletilla striata; sugar 0.02% in medium,0.20 g
same,Bulb size,Bletilla striata; sugar 0.02% in medium,5.7 mm
same,Maximum plant length,Bletilla striata; sugar 0.02% in medium,7.2 cm
same,Maximum root length,Bletilla striata; sugar 0.02% in medium,5.1 cm
same,Number of buds,Bletilla striata; sugar 0.02% in medium,3.4
same,Number of leaves,Bletilla striata; sugar 0.02% in medium,3.9
same,Ratio of bulb formation,Bletilla striata; sugar 0.02% in medium,59%
same,Underground part weight,Bletilla striata; sugar 0.02% in medium,0.18 g
same,Aerial part weight,Bletilla striata; sugar 0.05% in medium,0.18 g
same,Bulb size,Bletilla striata; sugar 0.05% in medium,5.2 mm
same,Maximum plant length,Bletilla striata; sugar 0.05% in medium,6.5 cm
same,Maximum root length,Bletilla striata; sugar 0.05% in medium,6.1 cm
same,Number of buds,Bletilla striata; sugar 0.05% in medium,3.4
same,Number of leaves,Bletilla striata; sugar 0.05% in medium,4.0
same,Ratio of bulb formation,Bletilla striata; sugar 0.05% in medium,45%
same,Underground part weight,Bletilla striata; sugar 0.05% in medium,0.14 g
same,time until wilt of the whole plant without irrigation,Primula,one day
O=C(CO)[C@H](O)[C@H](O)[C@H](O)CO [D-psicose],Underground part weight,[1],1.9 g
same,Number of lateral buds,[1],1.3
same,Aerial part weight,[1],3.1 g
same,Root length,[1],7.2 cm
same,Plant length,[1],4.5 cm
same,growth when the concentration added to the medium was increased,Bletilla striata; increased (high) concentration in medium,the growth thereof was delayed
same,Aerial part weight,Bletilla striata; sugar 0.005% in medium,0.24 g
same,Bulb size,Bletilla striata; sugar 0.005% in medium,6.2 mm
same,Maximum plant length,Bletilla striata; sugar 0.005% in medium,9.3 cm
same,Maximum root length,Bletilla striata; sugar 0.005% in medium,4.4 cm
same,Number of buds,Bletilla striata; sugar 0.005% in medium,4.1
same,Number of leaves,Bletilla striata; sugar 0.005% in medium,3.9
same,Ratio of bulb formation,Bletilla striata; sugar 0.005% in medium,45%
same,Underground part weight,Bletilla striata; sugar 0.005% in medium,0.26 g
same,Aerial part weight,Bletilla striata; sugar 0.02% in medium,0.28 g
same,Bulb size,Bletilla striata; sugar 0.02% in medium,5.6 mm
same,Maximum plant length,Bletilla striata; sugar 0.02% in medium,9.9 cm
same,Maximum root length,Bletilla striata; sugar 0.02% in medium,4.8 cm
same,Number of buds,Bletilla striata; sugar 0.02% in medium,3.3
same,Number of leaves,Bletilla striata; sugar 0.02% in medium,3.9
same,Ratio of bulb formation,Bletilla striata; sugar 0.02% in medium,65%
same,Underground part weight,Bletilla striata; sugar 0.02% in medium,0.22 g
same,Aerial part weight,Bletilla striata; sugar 0.05% in medium,0.20 g
same,Bulb size,Bletilla striata; sugar 0.05% in medium,5.1 mm
same,Maximum plant length,Bletilla striata; sugar 0.05% in medium,7.3 cm
same,Maximum root length,Bletilla striata; sugar 0.05% in medium,5.3 cm
same,Number of buds,Bletilla striata; sugar 0.05% in medium,4.0
same,Number of leaves,Bletilla striata; sugar 0.05% in medium,3.9
same,Ratio of bulb formation,Bletilla striata; sugar 0.05% in medium,67%
same,Underground part weight,Bletilla striata; sugar 0.05% in medium,0.13 g
same,germination,"[2]; 1% continuous, 32 species listed",Inhibition of Germination
same,germination,"[2]; 1% continuous, 41 species listed",Inhibited
same,elongation of roots,"[2]; 1% continuous, Diospyros kaki",inhibited
same,germination,"[2]; 1% continuous, Myosotis scorpioides and Chinese lantern plant (2 species)",Significantly Inhibited
same,germination,"[2]; 1% continuous, Salsola komarovii, Diospyros kaki, Clarkia amoena (3 species)",Not Affected or was Promoted Slightly
same,germination,[2]; many plants in the Brassica family,inhibited
same,germination,Salsola komarovii; continuous treatment with 1%,promoted
same,germination rate,"Salsola komarovii; immersed in 1% solution for 24 hours, in the end, DW 28%",28%
same,inhibitory effect on mycelial elongation,[3],has an effect on inhibiting mycelial elongation
same,time until wilt of the whole plant without irrigation,Primula,2 days
same,effect on mycelial elongation,[4],have an effect of inhibiting mycelial elongation
same,growth when the concentration added to the medium was increased,[5],the growth thereof was delayed

# From patent publication US8017828B2, “Utilization of rare sugars in plant or microorganism” (Shikoku Research Institute Incorporated, priority 2004, dated 2011)
